# Molecular target: T1, PYL2 A93F (Arabidopsis thaliana, UniProt O80992, A93F)
# T1 construct: PYL2 (residues 14-188), and HAB1 (residues 172-511) were prepared as recombinant proteins in E. coli; made in house; host or cells: E. coli (stated for PYL2 in general)
# Experiment: PP2C binding and phosphatase assays of mutant PYL2 A93F
# Type: biochemical
# Excerpt: The closest distance between the pyridine ring of pyrabactin and the LPA gating residues is 4.8 Å-7.0 Å when the LPA loop assumes the ABA-bound closed conformation, but is 11-13 Å when the LPA gate is in open conformation. In contrast, the distance of the naphthalene double ring of pyrabactin or the cyclohexene ring of ABA to the three side chains of the LPA gate in the PYL1 structure is 3.4-4.6 Å, a range for strong Van der Waals interactions, thus helping to keep the LPA gate in the closed conformation. […] To validate this hypothesis, we changed the alanine in the LPA loop to a larger residue. […] As expected from structural modeling, replacement of the gate residue A93 with the bulky phenylalanine ring also abrogated ABA to promote PYL2 activation.
# Mutant proteins were expressed as H6GST-fusion proteins and purified by glutathione sepharose chromatography. Protein-protein interactions were determined by luminescence proximity AlphaScreen assay. Biotinylated PP2C proteins for the luminescence proximity assay were generated by in vivo biotinylation of avitag-PP2C fusion proteins. PP2C phosphatase activity was measured by phosphate release from a SnRK2.6 phosphoprotein.
# Site-directed mutagenesis was carried out using the QuickChange method (Stratagene). Mutations and all plasmid constructs were confirmed by sequencing.
# T1 sequence (O80992 14-188 A93F): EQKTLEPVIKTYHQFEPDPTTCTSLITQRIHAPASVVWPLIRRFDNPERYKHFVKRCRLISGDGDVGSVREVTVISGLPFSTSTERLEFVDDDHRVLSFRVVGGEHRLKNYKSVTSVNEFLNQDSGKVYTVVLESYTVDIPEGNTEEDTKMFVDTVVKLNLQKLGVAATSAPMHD
substance,measurement,value
(+)-Abscisic Acid,Activation of mutant PYL2 A93F receptor,abrogated
